Source: PubChem BioAssay (NCI)
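Where inhibition never reached the appropriate level, the endpoint shown equals the highest concentration tested. Otherwise, values were interpolated linearly from a five-concentration, 48-hour dose response in 96-well plates. GI50 is the concentration that inhibits growth by half. TGI denotes the concentration required for complete inhibition of growth.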

Tests used:
Test in all cases: DTP human tumour cell line panel, 48 h
786-0 renal = system: 786-0 renal
A498 renal = system: A498 renal
A549 NSCLC = system: A549 NSCLC
ACHN renal = system: ACHN renal
BT-549 breast = system: BT-549 breast
CAKI-1 renal = system: CAKI-1 renal
CCRF-CEM leukemia = system: CCRF-CEM leukemia
COLO 205 colon = system: COLO 205 colon
DU-145 prostate = system: DU-145 prostate
EKVX NSCLC = system: EKVX NSCLC
HCC-2998 colon = system: HCC-2998 colon
HCT-116 colon = system: HCT-116 colon
HCT-15 colon = system: HCT-15 colon
HL-60(TB) leukemia = system: HL-60(TB) leukemia
HOP-62 NSCLC = system: HOP-62 NSCLC
HOP-92 NSCLC = system: HOP-92 NSCLC
HS 578T breast = system: HS 578T breast
HT29 colon = system: HT29 colon
IGROV1 ovarian = system: IGROV1 ovarian
K-562 leukemia = system: K-562 leukemia
KM12 colon = system: KM12 colon
LOX IMVI melanoma = system: LOX IMVI melanoma
M14 melanoma = system: M14 melanoma
MALME-3M melanoma = system: MALME-3M melanoma
MCF7 breast = system: MCF7 breast
MDA-MB-231 breast = system: MDA-MB-231 breast
MDA-MB-435 = system: MDA-MB-435
MOLT-4 leukemia = system: MOLT-4 leukemia
NCI-H226 lung = system: NCI-H226 lung
NCI-H23 lung = system: NCI-H23 lung
NCI-H460 lung = system: NCI-H460 lung
NCI-H522 lung = system: NCI-H522 lung
NCI/ADR-RES ovarian = system: NCI/ADR-RES ovarian
OVCAR-3 ovarian = system: OVCAR-3 ovarian
OVCAR-4 ovarian = system: OVCAR-4 ovarian
OVCAR-5 ovarian = system: OVCAR-5 ovarian
OVCAR-8 ovarian = system: OVCAR-8 ovarian
PC-3 prostate = system: PC-3 prostate
RPMI-8226 leukemia = system: RPMI-8226 leukemia
RXF 393 renal = system: RXF 393 renal
SF-268 CNS = system: SF-268 CNS
SF-295 CNS = system: SF-295 CNS
SF-539 CNS = system: SF-539 CNS
SK-MEL-2 melanoma = system: SK-MEL-2 melanoma
SK-MEL-28 melanoma = system: SK-MEL-28 melanoma
SK-MEL-5 melanoma = system: SK-MEL-5 melanoma
SK-OV-3 ovarian = system: SK-OV-3 ovarian
SN12C renal = system: SN12C renal
SNB-19 CNS = system: SNB-19 CNS
SNB-75 CNS = system: SNB-75 CNS
SR leukemia = system: SR leukemia
SW-620 colon = system: SW-620 colon
T-47D breast = system: T-47D breast
U251 CNS = system: U251 CNS
UACC-257 melanoma = system: UACC-257 melanoma
UACC-62 melanoma = system: UACC-62 melanoma
UO-31 renal = system: UO-31 renal

CCN(Cc1cccc(F)c1)c1ccc(CO)c(Cl)c1
GI50 (786-0 renal): 10.5 µM | TGI (786-0 renal): 30.3 µM | GI50 (A498 renal): 0.0356 µM | TGI (A498 renal): 0.169 µM | GI50 (A549 NSCLC): 2.31 µM | TGI (A549 NSCLC): 35 µM | GI50 (ACHN renal): 29.4 µM | TGI (ACHN renal): > 100 µM | GI50 (BT-549 breast): 11 µM | TGI (BT-549 breast): 28.3 µM | GI50 (CAKI-1 renal): 0.907 µM | TGI (CAKI-1 renal): > 36.3 µM | GI50 (CCRF-CEM leukemia): 24 µM | TGI (CCRF-CEM leukemia): > 80.7 µM | GI50 (COLO 205 colon): 1.57 µM | TGI (COLO 205 colon): 4.85 µM | GI50 (DU-145 prostate): 26.9 µM | TGI (DU-145 prostate): > 100 µM | GI50 (EKVX NSCLC): 22.3 µM | TGI (EKVX NSCLC): > 76 µM | GI50 (HCC-2998 colon): 10.7 µM | TGI (HCC-2998 colon): 35.5 µM | GI50 (HCT-116 colon): 0.0674 µM | TGI (HCT-116 colon): 5.85 µM | GI50 (HCT-15 colon): 14.5 µM | TGI (HCT-15 colon): > 100 µM | GI50 (HL-60(TB) leukemia): 19.6 µM | TGI (HL-60(TB) leukemia): > 69.8 µM | GI50 (HOP-62 NSCLC): 1.02 µM | TGI (HOP-62 NSCLC): > 37.6 µM | GI50 (HOP-92 NSCLC): 1.86 µM | TGI (HOP-92 NSCLC): 20.8 µM | GI50 (HS 578T breast): 19.5 µM | TGI (HS 578T breast): 74.4 µM | GI50 (HT29 colon): 3.42 µM | TGI (HT29 colon): > 51.4 µM | GI50 (IGROV1 ovarian): 0.0779 µM | TGI (IGROV1 ovarian): 1.15 µM | GI50 (K-562 leukemia): 3.54 µM | TGI (K-562 leukemia): > 100 µM | GI50 (KM12 colon): 22.1 µM | TGI (KM12 colon): > 68.7 µM | GI50 (LOX IMVI melanoma): 14.1 µM | TGI (LOX IMVI melanoma): 28.8 µM | GI50 (M14 melanoma): 19.2 µM | TGI (M14 melanoma): 66.8 µM | GI50 (MALME-3M melanoma): 20 µM | TGI (MALME-3M melanoma): 50.1 µM | GI50 (MCF7 breast): 0.216 µM | TGI (MCF7 breast): 17.8 µM | GI50 (MDA-MB-231 breast): 19 µM | TGI (MDA-MB-231 breast): > 55.3 µM | GI50 (MDA-MB-435): 18.2 µM | TGI (MDA-MB-435): 55.1 µM | GI50 (MOLT-4 leukemia): 25.2 µM | TGI (MOLT-4 leukemia): > 74.5 µM | GI50 (NCI-H226 lung): 0.0467 µM | TGI (NCI-H226 lung): 0.18 µM | GI50 (NCI-H23 lung): 10.8 µM | TGI (NCI-H23 lung): 74.4 µM | GI50 (NCI-H460 lung): 0.306 µM | TGI (NCI-H460 lung): 18 µM | GI50 (NCI-H522 lung): 19.2 µM | TGI (NCI-H522 lung): 58.6 µM | GI50 (NCI/ADR-RES ovarian): 15.9 µM | TGI (NCI/ADR-RES ovarian): 53.6 µM | GI50 (OVCAR-3 ovarian): 0.711 µM | TGI (OVCAR-3 ovarian): 6.71 µM | GI50 (OVCAR-4 ovarian): 0.318 µM | TGI (OVCAR-4 ovarian): 15.1 µM | GI50 (OVCAR-5 ovarian): 0.148 µM | TGI (OVCAR-5 ovarian): 0.605 µM | GI50 (OVCAR-8 ovarian): 17.3 µM | TGI (OVCAR-8 ovarian): > 60.9 µM | GI50 (PC-3 prostate): 21.8 µM | TGI (PC-3 prostate): > 82.5 µM | GI50 (RPMI-8226 leukemia): 5.98 µM | TGI (RPMI-8226 leukemia): > 56 µM | GI50 (RXF 393 renal): 5.28 µM | TGI (RXF 393 renal): 27.8 µM | GI50 (SF-268 CNS): 29.9 µM | TGI (SF-268 CNS): > 82.8 µM | GI50 (SF-295 CNS): 1.21 µM | TGI (SF-295 CNS): > 45.3 µM | GI50 (SF-539 CNS): 23.8 µM | TGI (SF-539 CNS): 63.5 µM | GI50 (SK-MEL-2 melanoma): 4.54 µM | TGI (SK-MEL-2 melanoma): 25.1 µM | GI50 (SK-MEL-28 melanoma): 16.2 µM | TGI (SK-MEL-28 melanoma): 45.5 µM | GI50 (SK-MEL-5 melanoma): 3.86 µM | TGI (SK-MEL-5 melanoma): 20.4 µM | GI50 (SK-OV-3 ovarian): 6.68 µM | TGI (SK-OV-3 ovarian): 36.3 µM | GI50 (SN12C renal): 14.6 µM | TGI (SN12C renal): > 50.5 µM | GI50 (SNB-19 CNS): 21.8 µM | TGI (SNB-19 CNS): > 92.6 µM | GI50 (SNB-75 CNS): 12 µM | TGI (SNB-75 CNS): 54 µM | GI50 (SR leukemia): 27.3 µM | TGI (SR leukemia): > 70.3 µM | GI50 (SW-620 colon): 0.808 µM | TGI (SW-620 colon): > 100 µM | GI50 (T-47D breast): 0.148 µM | TGI (T-47D breast): 0.662 µM | GI50 (U251 CNS): 1.01 µM | TGI (U251 CNS): 26.5 µM | GI50 (UACC-257 melanoma): 0.114 µM | TGI (UACC-257 melanoma): 0.344 µM | GI50 (UACC-62 melanoma): 0.0741 µM | TGI (UACC-62 melanoma): 0.649 µM | GI50 (UO-31 renal): 5.09 µM | TGI (UO-31 renal): 58.7 µM
